In the METLIN SMRT retention time set (Domingo-Almenara et al. 2019):

Assay: gradient 5% acetonitrile 3 min, to 50% in 2 min, to 85% in 15 min, held 3 min, 100 µL/min
Conditions: column: Zorbax Extend-C18 2.1 x 50 mm; eluents: water / acetonitrile, 0.1% formic acid
Procedure, shortened: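 Standards, all pure, were combined into mixtures of ~100 molecules and run at 100 μL/min on a Zorbax Extend-C18 column (2.1 × 50 mm, 1.8 μm) with water and acetonitrile, each containing 0.1% formic acid. A coupled quadrupole time-of-flight mass spectrometer operated in positive and negative ionization mode. Retention time values come from computationally picked adduct peaks, each inspected manually.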

Row | Structure (SMILES) | RP-LC retention time [s]
1 | CC(=O)N(Cc1nn(C)c2c1CN(CC1=Cc3ccccc3OC1)CC2)c1ccccc1 | 654
2 | COc1cccc(NC(=O)N2CCC3(C2)C(=O)Nc2ccc(OC)cc23)c1 (stereo not drawn) | 701
3 | CCn1ccc(C(=O)Nc2ccccc2)n1 | 801
4 | O=C(NCc1ccccc1)N1CCCC1c1nc(-c2ccc(F)cc2F)no1 (stereo not drawn) | 862
5 | CN(C)c1ccc(C(=O)NC2CCN(c3cc(-c4cccs4)[nH]n3)C2)cc1 (stereo not drawn) | 721
6 | CCn1cc(C(=O)NCCc2ccc(Cl)cc2)c(S(=O)(=O)N2CCSCC2)n1 | 935
7 | Cc1ccnc(NC(=O)C2CCN(S(=O)(=O)c3cc(C(=O)N4CCOCC4)cs3)CC2)c1 | 614
8 | O=C(O)c1nnn(-c2ccc3c(c2)OCO3)c1-c1cccnc1 | 602
9 | Cc1ccc2c(C(=O)Nc3ccc(N4CCOCC4)cc3)cc(NC(=O)C3CCC3)cc2n1 | 630
10 | CCN1CCCC1CNc1onc(-c2ccc(Cl)cc2)c1C(=O)OC (stereo not drawn) | 699
11 | CC(=O)N(C1CCOCC1)C1CCN(S(=O)(=O)c2ccccc2)CC1 | 712
12 | Cc1cc(C)n(-c2nc(C)c(C(=O)Nc3ccc(N(C)C)cc3)s2)n1 | 737
13 | CC(C)NC(=O)N1CCCC(c2cccc(C(=O)NCCN3CCCC3)c2)C1 (stereo not drawn) | 862
14 | CCCC1(CO)CCCN1C(=O)c1nn(C)c2ccccc12 (stereo not drawn) | 857
15 | COc1ccc(NS(=O)(=O)c2ccc(-c3c(C)noc3C)cc2)cc1 | 877
16 | O=C(O)c1ccccc1C(=O)NCC1COc2ccccc2O1 (stereo not drawn) | 708
17 | CCOC(=O)C1CCN(c2cc3c(cc2NC(=O)NCc2ccc(C)cc2)n(C)c(=O)n3C)CC1 | 842
18 | Cc1ccc(-n2nc(C)c3sc(N(C)CC(=O)N4CCN(c5ccccn5)CC4)nc32)cc1 | 709
19 | O=C1COc2cc(S(=O)(=O)N3CCC(C(=O)NC4CCCC4)CC3)c(Cl)cc2N1 | 735
20 | CC(C)n1c(=O)oc2cc(-c3noc(-c4cccc(F)c4)n3)ccc21 | 1200
21 | O=C(COc1ccc(F)cc1)Nc1cnc(-c2cccnc2)nc1 | 707
22 | COc1cccc(/C=C/C(=O)N2CCC(c3cc(N)on3)CC2)c1 | 716

Row | Structure (SMILES) | RP-LC retention time [s]
23 | CCc1nn2c(nnc3c(=O)n(CCc4c[nH]c5ccccc45)ccc32)c1-c1ccccc1 | 1010
24 | O=C(Nc1ccc(N2CCOCC2)c(Br)c1)c1ccc2c(c1)OCCCO2 | 959
25 | O=C(Nc1ccccc1)N1CC(c2nc(CCOCC3CC3)no2)C1 | 792
26 | COCCCNc1ncc(C(=O)O)c(-c2cccc(OC)c2)n1 | 668
27 | Cc1csc(-c2csc(S(=O)(=O)N3CCc4ccccc4C3)c2)n1 | 1110
28 | COC(=O)c1cccc(NC(=O)C2CC(=O)N(c3ccccc3)C2)c1 (stereo not drawn) | 725
29 | O=C(NCCN1CCCCC1)C1CCN(c2ccc(-c3ccc(F)cc3)nn2)CC1 | 567
30 | Cc1oc(-c2[nH]ncc2C(=O)N2CCCCC2)cc1S(=O)(=O)N1CCC(C)CC1 | 809
31 | O=C(NCc1ccco1)N1CCc2nc(-c3ccc(F)cc3)ncc2C1 | 813
32 | O=C(Cn1ncc2c(c1=O)N(CC1CC1)C(=O)CS2)N1CCN(c2ccccc2)CC1 | 788
33 | Cc1nn(-c2ccccc2)c2c1N(CCCC(=O)NCCC(C)C)C(=O)CS2 | 657
34 | CCCOc1ccc(CN2CCC3(CCC3O)CC2)cc1OC (stereo not drawn) | 629
35 | CC(C)c1ccc(N2C(=O)CC(N3CCC(C(N)=O)CC3)C2=O)cc1 (stereo not drawn) | 638
36 | CC(C)CN1C(=O)CSc2cnn(CC(=O)N3CCN(c4ccccc4)CC3)c(=O)c21 | 823
37 | CC(C)c1ccc(Nc2nc3ccncc3n(C(C)C)c2=O)cc1 | 774
38 | Cc1ncc2c(n1)C[C@@H]1CC[C@H]2N1S(=O)(=O)c1ccccc1C | 750
39 | CCCc1c(C(=O)NCC2CCCO2)nnn1-c1ccc(OC)cc1 (stereo not drawn) | 783
40 | O=C(Nc1cc(-c2cccc(Cl)c2)no1)C1CCCN(c2ncnc3c2nc2n3CCCCC2)C1 (stereo not drawn) | 1080
41 | CCC(C)NC(=O)N1CCNC(=O)C1 (stereo not drawn) | 557
42 | COc1ccccc1N1CCN(c2cc(SCC(=O)Nc3ccc(Cl)cc3F)ncn2)CC1 | 1260
43 | O=C(NCCc1c[nH]c2ccc(F)cc12)c1ccc(F)cc1 | 831
44 | Cc1nc(-c2noc(-c3ccncc3)n2)cn1CC(=O)N1CCc2ccccc21 | 678

Row | Structure (SMILES) | RP-LC retention time [s]
45 | CCOc1ccccc1N1CCN(S(=O)(=O)c2nn(CC)cc2C(=O)NCC(=O)OC)CC1 | 896
46 | Cc1ccc2nc(-c3ccc(O)cc3)c(Nc3ccccc3C)n2c1 | 678
47 | Cc1csc(-c2ccc(N3CCN(C(=O)Cc4ccc(Cl)cc4)CC3)nc2)n1 | 902
48 | O=C(NCCCN1CCOCC1)C1CCCN(c2ccc(=O)n(-c3cccc(Cl)c3)n2)C1 (stereo not drawn) | 610
49 | COc1ccccc1C(=O)NCCc1c[nH]c2ccc(Cl)cc12 | 640
50 | Cc1nnc(-c2ccc(S(=O)(=O)N3CCN(C4CCCCC4)CC3)o2)o1 | 622
51 | O=C(Cc1ccsc1)NCCn1c(=O)n(Cc2ccccc2)c2cccnc21 | 772
52 | CN1C(=O)c2cc(S(=O)(=O)Nc3cccc(Cl)c3)ccc2Oc2cccnc21 | 952
53 | COc1ccc(CNC(=O)C2(C)CCN(C(=O)Nc3ccccc3C(F)(F)F)CC2)cc1 | 834
54 | Cn1cc(S(=O)(=O)N2CCC(C(=O)Nc3cccc(C#N)c3)CC2)cc1C(=O)N1CCCC1 | 751
55 | Cc1oc(-c2[nH]ncc2C(=O)N2CCCC2)cc1S(=O)(=O)NCCC(C)C | 736
56 | COc1ccc(CC(=O)Nc2ccc(Nc3cc(OC)nc(C)n3)cc2)cc1 | 617
57 | CC(C)n1cnc(S(=O)(=O)N2CCC(C(=O)Nc3cccc(Br)c3)CC2)c1 | 843
58 | Cc1cc(OCC(=O)Nc2cccc(Cl)c2C)nc(N2CCN(c3ccccc3)CC2)n1 | 949
59 | COc1ccc(C2(C)OC(c3cc(C)nc4ccccc34)=NN2C(C)=O)c(OC)c1 (stereo not drawn) | 818
60 | O=C(CCc1nnc(C(=O)Nc2ccccc2)s1)NCCc1c[nH]c2ccc(Cl)cc12 | 921
61 | CN(C)c1ccc2ncc(=O)n(C)c2n1 | 728
62 | CCCN1CCN(C(=O)c2cc3n(n2)CC(C)(C(=O)NC2CCCCCC2)N(C)C3=O)CC1 (stereo not drawn) | 614
63 | COc1cccc(-c2cc3n(n2)C(NCCc2cccs2)CNC3=O)c1 (stereo not drawn) | 838
64 | CCc1cc(-c2csc(S(=O)(=O)NCCCN3CCN(c4ccccc4)CC3)c2)on1 | 736
65 | O=C(Nc1cccc(Cl)c1)c1cn(CC(O)c2ccc3c(c2)OCO3)nn1 (stereo not drawn) | 863
66 | CC(C)c1cc(C2CCCN2C(=O)c2cccs2)no1 (stereo not drawn) | 862

Row | Structure (SMILES) | RP-LC retention time [s]
67 | CC[C@@H](CO)Nc1nc(NCc2ccc(-c3ccccn3)cc2)c2ncn(C(C)C)c2n1 | 632
68 | O=C(NCc1ccc2c(c1)OCO2)C1CCCN(C(=O)C2Sc3ccccc3NC2=O)C1 (stereo not drawn) | 703
69 | CC1(C(=O)NCc2ccccc2)CN(S(C)(=O)=O)CC(=O)N1C1CC1 (stereo not drawn) | 662
70 | Cc1cc(S(=O)(=O)N2CC(c3nc(-c4ncccn4)no3)C2)c(Cl)cc1Cl | 834
71 | Fc1ccc(-c2csc(Nc3ccccn3)n2)cc1 | 896
72 | Cc1ccc(NC(=O)C2CC(=O)N(CCc3c[nH]c4ccc(Cl)cc34)C2)cc1 (stereo not drawn) | 884
73 | Cc1noc(C2CN(C(=O)NC(C)(C)C)CC23CCOCC3)n1 (stereo not drawn) | 670
74 | CC(NC(=O)c1cccc2c1CCN2C(=O)Nc1ccccc1)c1cccnc1 (stereo not drawn) | 643
75 | Cc1ccc(CNC(=O)Cn2c(N)nc(C)cc2=O)cc1 | 595
76 | COC(=O)c1cccc(NC(=O)CSc2cc(N3CCN(c4ccccc4OC)CC3)ncn2)c1 | 926
77 | Cc1ccn2cc(-c3cccc(NS(=O)(=O)c4cc(C)c(C)cc4C)c3)nc2c1 | 732
78 | CCN1c2ccc(F)cc2C(=O)NC12CCN(C(=O)c1ccccc1OC)CC2 | 759
79 | O=C1C2N=NN(Cc3nc(-c4ccccc4Cl)no3)C2C(=O)N1c1ccc2c(c1)CCC2 (stereo not drawn) | 1070
80 | CCOc1ccc(C(=O)NC(C(=O)Nc2nc3ccccc3[nH]2)C(C)CC)cc1OCC (stereo not drawn) | 792
81 | C=CCN1CCN(C(=O)C2CCN(c3cc(Nc4ccc(C)cc4)ncn3)CC2)CC1 | 572
82 | COc1nccnc1NC1CCN(C(=O)c2cccn2C)CC1 | 570
83 | COc1ccccc1NC(=O)Nc1ccc2nc3n(c(=O)c2c1)CCC3 | 698
84 | CCn1cc(S(=O)(=O)N2C[C@@H](C(=O)NC)[C@H](c3n[nH]c(C)n3)C2)cn1 | 577
85 | CCc1nc(-c2csc(S(=O)(=O)N3CCC(C(=O)Nc4ccc(C(C)C)cc4)CC3)c2)no1 | 1140
86 | O=C1C2N=NN(Cc3nc(-c4ccc5c(c4)OCO5)no3)C2C(=O)N1c1ccc2c(c1)OCO2 (stereo not drawn) | 899
87 | CCOC(=O)c1cc(C2CC2)nc2c1c(=O)n(Cc1cccc(F)c1)c(=O)n2C | 1160
88 | Cc1cccc(N2C(=O)CN(S(C)(=O)=O)CC2(C)C(=O)NCc2ccc(Cl)cc2)c1C (stereo not drawn) | 903
